# Assay results reported in patent US8163771B2, “11 β-HSD1 modulators” (Exelixis, Inc., priority 2008, dated 2012).
# Molecular target: T1, recombinant human 11 β-HSD1 (Homo sapiens, UniProt P28845)
# T1 construct: made in house; host or cells: E. coli
# Experiment: 11 β-HSD1 SPA Assay (Scintillation Proximity Assay)
# Format: biochemical
# Method: (§1) Inhibition of 11 βHSD1 by test compounds was assessed in vitro by a Scintillation Proximity Assay (SPA). The assay was carried out in a 384-well assay plate in a total well volume of 26 μl and contained a mixture of tritiated cortisone substrate (40 nM), NADPH cofactor (1 mM), inhibitor in serial dilutions ([…] to 10 μM), and purified E. coli-expressed recombinant human 11 βHSD1 (30-100 nM) in assay buffer (50 mM HEPES, 100 mM KCl, 5 mM NaCl, and 2 mM MgCl2, pH7.4). Following mixing, the plate was incubated for 2 hours at room temperature. Reactions were stopped by addition of 30 μl of protein A YSi SPA beads (10 mg/ml) that had been pre-incubated with glycyrrhetinic acid (1 mM) and a monoclonal cortisol antibody (3 μg/ml). The plate was then incubated overnight at room temperature prior to reading on a Microbeta counter. Percent inhibition of each compound was calculated based on the background and the maximal signals. Wells that contained substrate without compound or enzyme were used as the background signal, while the wells that contained substrate and enzyme without any compound were used as the maximal signal. The calculation of the IC50 values for the inhibitors was performed by Activity Base.
# as §1, with “β-HSD1” for “βHSD1”
# T1 sequence (P28845 whole entry): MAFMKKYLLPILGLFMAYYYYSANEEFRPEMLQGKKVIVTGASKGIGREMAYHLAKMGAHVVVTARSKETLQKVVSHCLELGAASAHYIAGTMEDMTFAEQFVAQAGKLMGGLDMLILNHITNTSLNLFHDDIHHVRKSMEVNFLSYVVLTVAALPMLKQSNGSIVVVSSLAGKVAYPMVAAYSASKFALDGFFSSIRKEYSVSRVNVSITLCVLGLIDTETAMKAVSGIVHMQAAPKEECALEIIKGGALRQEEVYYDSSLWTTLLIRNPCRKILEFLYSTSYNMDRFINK
row,Structure (SMILES),IC50 [nM]
1,"CC(C)(Oc1ccc(Cl)cc1Cl)C(=O)N[C@H]1C[C@H]2CC[C@@H](C1)N2c1ccc(C#N)cn1 [Example 55, N-[8-(5-cyanopyridin-2-yl)-8-azabicyclo[3.2.1]oct-3-endo-yl]-2-[(2,4-dichlorophenyl)oxy]-2-methylpropanamide]",< 200
2,"CC(C)(Oc1ccc(Cl)cc1Cl)C(=O)N[C@H]1C[C@H]2CC[C@@H](C1)N2c1ccc(C(N)=O)cn1 [Example 56, 6-[3-endo-({2-[(2,4-dichlorophenyl)oxy]-2-methylpropanoyl}amino)-8-azabicyclo[3.2.1]oct-8-yl]pyridine-3-carboxamide]",< 200
3,"CC(=O)c1ccc(N2[C@@H]3CC[C@H]2C[C@@H](NC(=O)C2(c4ccc(Cl)cc4)CC2)C3)nc1 [Example 57, N-[8-(5-acetylpyridin-2-yl)-8-azabicyclo[3.2.1]oct-3-endo-yl]-1-(4-chlorophenyl)cyclopropanecarboxamide]",< 200
4,"CC(=O)Nc1ccc(N2[C@@H]3CC[C@H]2C[C@@H](NC(=O)C2(c4ccc(Cl)cc4)CC2)C3)nc1 [Example 58, N-{8-[5-(acetylamino)pyridin-2-yl]-8-azabicyclo[3.2.1]oct-3-endo-yl}-1-(4-chlorophenyl)cyclopropanecarboxamide]",< 200
5,"O=C(Nc1ccc(N2[C@@H]3CC[C@H]2C[C@@H](NC(=O)C2(c4ccc(Cl)cc4)CC2)C3)nc1)C1CC1 [Example 59, 1-(4-chlorophenyl)-N-(8-{5-[(cyclopropylcarbonyl)amino]pyridin-2-yl}-8-azabicyclo[3.2.1]oct-3-endo-yl)cyclopropanecarboxamide]",< 200
6,"CS(=O)(=O)Nc1ccc(N2[C@@H]3CC[C@H]2C[C@@H](NC(=O)C2(c4ccc(Cl)cc4)CC2)C3)nc1 [Example 60, 1-(4-chlorophenyl)-N-(8-{5-[(methylsulfonyl)amino]pyridin-2-yl}-8-azabicyclo[3.2.1]oct-3-endo-yl)cyclopropanecarboxamide]",< 200
7,"Nc1ccc(N2[C@@H]3CC[C@H]2C[C@@H](NC(=O)C2(c4ccc(Cl)cc4)CC2)C3)nc1 [Example 61, N-[8-(5-aminopyridin-2-yl)-8-azabicyclo[3.2.1]oct-3-endo-yl]-1-(4-chlorophenyl)cyclopropanecarboxamide]",< 200
8,"O=C(NC1CC1)c1ccc(N2[C@@H]3CC[C@H]2C[C@@H](NC(=O)C2(c4ccc(Cl)cc4)CC2)C3)cc1 [Example 62, 4-[3-endo-({[1-(4-chlorophenyl)cyclopropyl]carbonyl}amino)-8-azabicyclo[3.2.1]oct-8-yl]-N-cyclopropylbenzamide]",< 200
9,"O=C(NC1CC1)c1ccc(N2[C@@H]3CC[C@H]2C[C@@H](NC(=O)C2(c4ccc(Cl)cc4)CC2)C3)cc1Cl [Example 63, 2-chloro-4-[3-endo-({[1-(4-chlorophenyl)cyclopropyl]carbonyl}amino)-8-azabicyclo[3.2.1]oct-8-yl]-N-cyclopropylbenzamide]",< 200
10,"O=C(NC1CC1)c1ccc(N2[C@@H]3CC[C@H]2C[C@@H](NC(=O)C2(Oc4ccc(Cl)cc4)CC2)C3)nc1 [Example 64, 6-{3-endo-[({1-[(4-chlorophenyl)oxy]cyclopropyl}carbonyl)amino]-8-azabicyclo[3.2.1]oct-8-yl}-N-cyclopropylpyridine-3-carboxamide]",< 200
11,"CC(C)(Oc1ccc(Cl)cc1Cl)C(=O)N[C@H]1C[C@H]2CC[C@@H](C1)N2c1ccc(C(=O)NCC(F)(F)F)cn1 [Example 65, 6-[3-endo-({2-[(2,4-dichlorophenyl)oxy]-2-methylpropanoyl}amino)-8-azabicyclo[3.2.1]oct-8-yl]-N-(2,2,2-trifluoroethyl)pyridine-3-carboxamide]",< 200
12,"CC(C)(Oc1ccc(Cl)cc1)C(=O)N[C@H]1C[C@H]2CC[C@@H](C1)N2c1cnccn1 [Example 66, 2-[(4-chlorophenyl)oxy]-2-methyl-N-(8-pyrazin-2-yl-8-azabicyclo[3.2.1]oct-3-endo-yl)propanamide]",< 200
13,"COCCNC(=O)c1ccc(N2[C@@H]3CC[C@H]2C[C@@H](NC(=O)C(C)Oc2ccc(Cl)cc2)C3)nc1 (stereo partly drawn) [Example 67, 6-[3-endo-({2-[(4-chlorophenyl)oxy]propanoyl}amino)-8-azabicyclo[3.2.1]oct-8-yl]-N-[2-(methyloxy)ethyl]pyridine-3-carboxamide]",< 10000
14,"COCCNC(=O)c1ccc(N2[C@@H]3CC[C@H]2C[C@@H](NC(=O)C(C)Oc2ccc(Cl)cc2Cl)C3)nc1 (stereo partly drawn) [Example 68, 6-[3-endo-({2-[(2,4-dichlorophenyl)oxy]propanoyl}amino)-8-azabicyclo[3.2.1]oct-8-yl]-N-[2-(methyloxy)ethyl]pyridine-3-carboxamide]",< 2000
15,"CC(C)(Oc1cc(F)ccc1Cl)C(=O)N[C@H]1C[C@H]2CC[C@@H](C1)N2c1ccc(C(=O)NC2CC2)cn1 [Example 69, 6-[3-endo-({2-[(2-chloro-5-fluorophenyl)oxy]-2-methylpropanoyl}amino)-8-azabicyclo[3.2.1]oct-8-yl]-N-cyclopropylpyridine-3-carboxamide]",< 200
16,"CC(C)NC(=O)c1ccc(N2[C@@H]3CC[C@H]2C[C@@H](NC(=O)C(C)(C)Oc2ccc(F)cc2Cl)C3)nc1 [Example 70, 6-[3-endo-({2-[(2-chloro-4-fluorophenyl)oxy]-2-methylpropanoyl}amino)-8-azabicyclo[3.2.1]oct-8-yl]-N-(1-methylethyl)pyridine-3-carboxamide]",< 200
17,"CC(C)(Oc1cc(Cl)ccc1Cl)C(=O)N[C@H]1C[C@H]2CC[C@@H](C1)N2c1ccc(C(=O)NC2CC2)cn1 [Example 71, N-cyclopropyl-6-[3-endo-({2-[(2,5-dichlorophenyl)oxy]-2-methylpropanoyl}amino)-8-azabicyclo[3.2.1]oct-8-yl]pyridine-3-carboxamide]",< 200
18,"CC(C)(Oc1cc(Cl)ccc1Cl)C(=O)N[C@H]1C[C@H]2CC[C@@H](C1)N2c1ccc(C(=O)NCC(F)(F)F)cn1 [Example 72, 6-[3-endo-({2-[(2,5-dichlorophenyl)oxy]-2-methylpropanoyl}amino)-8-azabicyclo[3.2.1]oct-8-yl]-N-(2,2,2-trifluoroethyl)pyridine-3-carboxamide]",< 200
19,"CC(C)(Oc1cc(F)ccc1Cl)C(=O)N[C@H]1C[C@H]2CC[C@@H](C1)N2c1ccc(C(=O)NCC(F)(F)F)cn1 [Example 73, 6-[3-endo-({2-[(2-chloro-5-fluorophenyl)oxy]-2-methylpropanoyl}amino)-8-azabicyclo[3.2.1]oct-8-yl]-N-(2,2,2-trifluoroethyl)pyridine-3-carboxamide]",< 200
20,"CC(C)(Oc1ccc(F)cc1Cl)C(=O)N[C@H]1C[C@H]2CC[C@@H](C1)N2c1ccc(C(N)=O)cn1 [Example 74, 6-[3-endo-({2-[(2-chloro-4-fluorophenyl)oxy]-2-methylpropanoyl}amino)-8-azabicyclo[3.2.1]oct-8-yl]pyridine-3-carboxamide]",< 200
21,"CC(C)(Oc1cc(F)c(F)cc1Cl)C(=O)N[C@H]1C[C@H]2CC[C@@H](C1)N2c1ccc(C(=O)NCC(F)(F)F)cn1 [Example 75, 6-[3-endo-({2-[(2-chloro-4,5-difluorophenyl)oxy]-2-methylpropanoyl}amino)-8-azabicyclo[3.2.1]oct-8-yl]-N-(2,2,2-trifluoroethyl)pyridine-3-carboxamide]",< 200
22,"CC(C)(Oc1cc(F)c(Cl)cc1Cl)C(=O)N[C@H]1C[C@H]2CC[C@@H](C1)N2c1ccc(C(N)=O)cn1 [Example 76, 6-[3-endo-({2-[(2,4-dichloro-5-fluorophenyl)oxy]-2-methylpropanoyl}amino)-8-azabicyclo[3.2.1]oct-8-yl]pyridine-3-carboxamide]",< 200
23,"CC(C)(Oc1ccc(Cl)c(F)c1)C(=O)N[C@H]1C[C@H]2CC[C@@H](C1)N2c1ccc(C(=O)NCC(F)(F)F)cn1 [Example 77, 6-[3-endo-({2-[(4-chloro-3-fluorophenyl)oxy]-2-methylpropanoyl}amino)-8-azabicyclo[3.2.1]oct-8-yl]-N-(2,2,2-trifluoroethyl)pyridine-3-carboxamide]",< 200
24,"CC(C)(Oc1ccc(F)c(F)c1)C(=O)N[C@H]1C[C@H]2CC[C@@H](C1)N2c1ccc(C(=O)NCC(F)(F)F)cn1 [Example 78, 6-[3-endo-({2-[(3,4-difluorophenyl)oxy]-2-methylpropanoyl}amino)-8-azabicyclo[3.2.1]oct-8-yl]-N-(2,2,2-trifluoroethyl)pyridine-3-carboxamide]",< 200
25,"CC(C)NC(=O)c1ccc(N2[C@@H]3CC[C@H]2C[C@@H](NC(=O)C(C)(C)Oc2ccc(Cl)c(Cl)c2)C3)nc1 [Example 79, 6-[3-endo-({2-[(3,4-dichlorophenyl)oxy]-2-methylpropanoyl}amino)-8-azabicycio[3.2.1]oct-8-yl]-N-(1-methylethyl)pyridine-3-carboxamide]",< 200
